Columns and labels:
[1] = system: SNB-75; experiment: NCI 60 single concentration growth inhibition; assay type: cell-based, human; conditions: SNB-75, CNS cancer, 10 μM
Summary of the method: (§1)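 Suspension cells such as leukaemia lines are fixed with 80% TCA added to settled cells, to 16% final, while other lines are fixed at 10% TCA. Both are then SRB-stained after 48 h of drug exposure at 37 °C.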

[2] = system: IGROV1; experiment: NCI 60 single concentration growth inhibition; assay type: cell-based, human; conditions: IGROV1, Ovarian cancer, 10 μM
Summary of the method: as §1

[3] = biological target: T1, BRAFWT (Homo sapiens, UniProt P15056); experiment: BRAFWT kinase assay kit (Kinase-Glo Max luminescence); assay type: biochemical; conditions: mean of two independent experiments ± SD; for % inhibition / inhibition at 10 µM: BRAFwt, 10 µM
T1 construct: purchased BPS Biosciences 78316
T1 sequence (P15056 whole entry): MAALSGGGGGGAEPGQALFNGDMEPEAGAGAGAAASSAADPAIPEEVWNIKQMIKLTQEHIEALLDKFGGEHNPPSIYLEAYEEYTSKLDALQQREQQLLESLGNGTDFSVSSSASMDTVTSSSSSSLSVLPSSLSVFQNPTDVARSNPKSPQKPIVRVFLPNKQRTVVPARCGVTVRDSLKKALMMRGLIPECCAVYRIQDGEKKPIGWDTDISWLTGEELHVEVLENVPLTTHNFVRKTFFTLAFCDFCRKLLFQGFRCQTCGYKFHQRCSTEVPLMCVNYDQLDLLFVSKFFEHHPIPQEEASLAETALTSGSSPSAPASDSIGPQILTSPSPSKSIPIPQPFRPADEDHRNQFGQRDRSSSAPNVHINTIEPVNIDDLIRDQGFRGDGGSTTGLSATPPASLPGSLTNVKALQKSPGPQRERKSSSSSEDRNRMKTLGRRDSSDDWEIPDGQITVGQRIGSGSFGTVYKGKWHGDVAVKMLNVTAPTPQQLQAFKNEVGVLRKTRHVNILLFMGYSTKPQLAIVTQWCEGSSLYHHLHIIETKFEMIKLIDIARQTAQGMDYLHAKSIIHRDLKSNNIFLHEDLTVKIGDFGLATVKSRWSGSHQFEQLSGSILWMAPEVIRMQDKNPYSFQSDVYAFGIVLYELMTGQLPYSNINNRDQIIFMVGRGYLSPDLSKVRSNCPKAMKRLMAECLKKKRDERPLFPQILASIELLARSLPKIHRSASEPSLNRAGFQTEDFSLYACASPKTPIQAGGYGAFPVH
Method: The inhibitory activities of 10a–p on BRAFWT was examined utilizing BRAFWT assay kit (BPS Biosciences—San Diego—CA—US) (For further information see Additional file A).
4. Biochemical kinase assays
The inhibitory activity against different kinases was determined using kinase kits (BRAF WT […]
Glo Max luminescence kinase assay kit (Promega).
The assay was carried out according to the protocol provided by the manufacturer. A stock solution of the synthesized derivatives in 100% DMSO was prepared. Subsequently, the compounds were diluted to 10% DMSO.
A master mixture was prepared according to the number of wells. For BRAF assay each well include 6 μl of 5x Kinase Buffer 1 + 1 μl of ATP (500 μM) + 10 μl of 5X Raf substrate + 8 μl of distilled water. 1x Kinase buffer 1 was prepared by mixing 600 μl of 5x Kinase Buffer 1 with 2400 μl water to give 3 mL. Kinases were thawed on ice and were diluted with 1x Kinase Buffer 1.
To start the biochemical reaction, 25 µL of the master mixture was added to each well in 96 well plate. 5 µL of 10% DMSO was added to positive control wells and blank wells. 5 µL of diluted inhibitor was added to each well labelled with the test inhibitor so that the final concentration of DMSO is 1% in all reactions. Then 20 µL of (2.5 ng/μl) in case of BRAF WT and (1 ng / μl) in case of VEGFR-2 and FGFR-1 in 1x kinase buffer was added to positive control wells and wells labelled with the inhibitor, while 20 µL 1x kinase buffer 1 was added to the blank wells.
The plate was incubated at 30 °C for 45 min. Subsequently, 50 μl of Kinase-Glo Max luminescence reagent was added to each well and the plate was covered with aluminum foil and incubated at room temperature for 15 min. Finally, the luminescence was recorded using multimode microplate reader. Kinase activity assays were performed in duplicate at each concentration.
The luminescence data were analyzed as follows. The difference between luminescence intensities in the absence of kinase (Lu t) and in the presence of kinase (Lu c) was defined as 100 % […]
calculated as: % activity = {(Lu t - Lu)/(Lut - Luc)} ×100%. The concentration of the test compounds required to reduce the kinase activity by 50% was determined from dose-response curves and […]

[4] = system: MALME-3M; experiment: NCI 60 single concentration growth inhibition; assay type: cell-based, human; conditions: Melanoma, 10 μM
Summary of the method: as §1

[5] = system: UO-31; experiment: NCI 60 single concentration growth inhibition; assay type: cell-based, human; conditions: UO-31, Renal cancer, 10 μM
Summary of the method: as §1

Row | Molecule | GI% [1] | GI% [2] | % inhibition [3] | GI% [4] | GI% [5] | inhibition at 10 µM [3] | IC50 [3]
1 | 2-(4-((2-(2-(5,6-Dichloro-2-(4-methoxyphenyl)-1H-benzo[d]imidazol-1-yl)acetyl)hydrazono)methyl) -2-methoxyphenoxy)acetic acid [Compound 10m] | – (GI% < 5%) | – (GI% < 5%) | 77.25 ± 1.06% | – (GI% < 5%) | 8.63% | – | –
2 | 2-(5-((2-(2-(5,6-Dichloro-2-(4-methoxyphenyl)-1H-benzo[d]imidazol-1-yl)acetyl)hydrazono)methyl)-2-methoxyphenoxy)acetic acid [Compound 10n] | – (GI% < 5%) | – (GI% < 5%) | 90.05 ± 5.16% | – (GI% < 5%) | 13.00% | – | –
3 | 3-(4-((2-(2-(5,6-Dichloro-2-(4-methoxyphenyl)-1H-benzo[d]imidazol-1-yl)acetyl)hydrazono)methyl)phenoxy)propanoic acid [Compound 10i] | 8.33% | – (GI% < 5%) | 74.95 ± 5.15% | – (GI% < 5%) | 25.68% | – | –
4 | COc1ccc(-c2nc3cc(Cl)c(Cl)cc3n2CC(=O)NN=Cc2cccc(O)c2)cc1 [Compound 10a, 2-(5,6-Dichloro-2-(4-methoxyphenyl)-1H-benzo[d]imidazol-1-yl)-N'-(3-hydroxybenzylidene)acetohydrazide] | – | – | – | – | – | 22.5 ± 1% | –
5 | COc1ccc(-c2nc3cc(Cl)c(Cl)cc3n2CC(=O)NN=Cc2ccc(O)cc2)cc1 [Compound 10b, 2-(5,6-Dichloro-2-(4-methoxyphenyl)-1H-benzo[d]imidazol-1-yl)-N'-(4-hydroxybenzylidene)acetohydrazide] | – | – | – | – | – | 21.9 ± 1.62% | –
6 | COc1ccc(-c2nc3cc(Cl)c(Cl)cc3n2CC(=O)NN=Cc2cccc(OC)c2)cc1 [Compound 10c, 2-(5,6-Dichloro-2-(4-methoxyphenyl)-1H-benzo[d]imidazol-1-yl)-N'-(3-methoxybenzylidene)acetohydrazide] | – | – | – | – | – | 53.85 ± 0.001% | –
7 | COc1ccc(C=NNC(=O)Cn2c(-c3ccc(OC)cc3)nc3cc(Cl)c(Cl)cc32)cc1 [Compound 10d, 2-(5,6-Dichloro-2-(4-methoxyphenyl)-1H-benzo[d]imidazol-1-yl)-N'-(4-methoxybenzylidene)acetohydrazide] | – | – | – | – | – | 52.7 ± 0.87% | –
8 | COc1ccc(-c2nc3cc(Cl)c(Cl)cc3n2CC(=O)NN=Cc2cccc(OCC(=O)O)c2)cc1 [Compound 10e, 2-(3-((2-(2-(5,6-Dichloro-2-(4-methoxyphenyl)-1H-benzo[d]imidazol-1-yl)acetyl)hydrazono)methyl)phenoxy)acetic acid] | – (GI% < 5%) | – (GI% < 5%) | – | – (GI% < 5%) | 10.58% | 28.1 ± 2.76% | –
9 | COc1ccc(-c2nc3cc(Cl)c(Cl)cc3n2CC(=O)NN=Cc2ccc(OCC(=O)O)cc2)cc1 [Compound 10f, 2-(4-((2-(2-(5,6-Dichloro-2-(4-methoxyphenyl)-1H-benzo[d]imidazol-1-yl)acetyl)hydrazono)methyl)phenoxy)acetic acid] | – | – | – | – | – | 53.15 ± 0.36% | –
10 | COC(=O)COc1cccc(C=NNC(=O)Cn2c(-c3ccc(OC)cc3)nc3cc(Cl)c(Cl)cc32)c1 [Compound 10g, Methyl-2-(3-((2-(2-(5,6-dichloro-2-(4-methoxyphenyl)-1H-benzo[d]imidazol-1-yl)acetyl)hydrazono)methyl)phenoxy)acetate] | – | – | – | – | – | 39.9 ± 2.49% | –
11 | COC(=O)COc1ccc(C=NNC(=O)Cn2c(-c3ccc(OC)cc3)nc3cc(Cl)c(Cl)cc32)cc1 [Compound 10h, Methyl-2-(4-((2-(2-(5,6-dichloro-2-(4-methoxyphenyl)-1H-benzo[d]imidazol-1-yl)acetyl)hydrazono)methyl)phenoxy)acetate] | – | – | – | – | – | 91.2 ± 6.5% | 1.72 ± 0.09 µM
12 | CCOC(=O)C(C)Oc1ccc(C=NNC(=O)Cn2c(-c3ccc(OC)cc3)nc3cc(Cl)c(Cl)cc32)cc1 (stereo not drawn) [Compound 10j, Ethyl-2-(4-((2-(2-(5,6-dichloro-2-(4-methoxyphenyl)-1H-benzo[d]imidazol-1-yl)acetyl) hydrazono)methyl)phenoxy)propanoate] | 5.72% | 25.42% | – | – (GI% < 5%) | 25.57% | 70.2 ± 6.16% | –
13 | COc1ccc(-c2nc3cc(Cl)c(Cl)cc3n2CC(=O)NN=Cc2ccc(OC)c(O)c2)cc1 [Compound 10k, 2-(5,6-Dichloro-2-(4-methoxyphenyl)-1H-benzo[d]imidazol-1-yl)-N'-(3-hydroxy-4-methoxybenzylidene)acetohydrazide] | 33.65% | 10.22% | – | 23.45% | 55.02% | 47.6 ± 3.8% | –
14 | COc1ccc(-c2nc3cc(Cl)c(Cl)cc3n2CC(=O)NN=Cc2ccc(O)c(OC)c2)cc1 [Compound 10l, 2-(5,6-Dichloro-2-(4-methoxyphenyl)-1H-benzo[d]imidazol-1-yl)-N'-(4-hydroxy-3-methoxybenzylidene)acetohydrazide] | – | – | – | – | – | 52.3 ± 4.92% | –
15 | COC(=O)COc1cc(C=NNC(=O)Cn2c(-c3ccc(OC)cc3)nc3cc(Cl)c(Cl)cc32)ccc1OC [Compound 10o, Methyl-2-(5-((2-(2-(5,6-dichloro-2-(4-methoxyphenyl)-1H-benzo[d]imidazol-1-yl)acetyl)hydrazono)methyl)-2-methoxyphenoxy)acetate] | 27.54% | 97.59% | – | – (GI% < 5%) | 18.26% | 34.3 ± 3.31% | –
16 | COC(=O)COc1ccc(C=NNC(=O)Cn2c(-c3ccc(OC)cc3)nc3cc(Cl)c(Cl)cc32)cc1OC [Compound 10p, Methyl-2-(4-((2-(2-(5,6-dichloro-2-(4-methoxyphenyl)-1H-benzo[d]imidazol-1-yl)acetyl)hydrazono)methyl)-2-methoxyphenoxy)acetate] | – | – | – | – | – | 90.5 ± 8.9% | –
